Results reported in article PMC9887672, “Predicting human cardiac QT alterations and pro-arrhythmic effects of compounds with a 3D beating heart-on-chip platform” (Toxicological Sciences, 2022).
“Also recorded” adds a separate entry of the source. Read-outs that look alike come from different tables or passages of the source.

How the values were obtained:
[1] = tested on: uHeart 3D cardiac microtissues (h-iPSC-CMs and dermal fibroblasts in fibrin); assay: Drug screening on uHeart: field potential recording (FPDcF, BP, AMP, arrhythmic events, beating cessation); details: for Arrhythmic events: detected (Y) or not (N) in uHeart; for Effect on beating period BP (in words) / Effect on spike amplitude AMP (in words) / Effect on FPDcF (in words): incremental doses; for Effect on FPDcF (in words): change vs baseline; for TdP risk category proposed from uHeart score: score vs ratio effective concentration/fETPC, Figure 6D; for [%FPDcF] >LOW, drug concentration: concentration causing FPDcF change by 10% vs baseline; for FPDcF alteration, direction, at [%FPDcF]>HIGH: threshold HIGH = 20% change vs baseline; for FPDcF alteration, direction, at [%FPDcF] >MID: threshold MID = 15% change vs baseline; for Arrhythmic events, lowest detected concentration: value in brackets in Table 2; for Concentration at which the described FPDcF change was seen: aspirine: increment just above LOW threshold, alfuzosin: slight shortening
Protocol: Human adult dermal fibroblasts were provided by Lonza Group Ltd. H-iPSC-CMs were thawed according to standard protocols and immediately used. Fibroblasts were expanded at confluency in DMEM (Gibco, 4.5 g l^−1 glucose) supplemented with 10% v/v FBS, 100 U ml^−1 penicillin, 100 μg ml^−1 streptomycin, and 10 mmol HEPES and used at passage 10–11. […] Subsequently, 2 μl of cell solution was inoculated into the central channel of each chamber of the uBeat Platform (provided by BiomimX Srl). The hydrogel was cross-linked in the incubator at 37°C for 8 min before manually adding the plating medium (FUJIFILM Cellular Dynamics Inc.) supplemented with 100 U ml^−1 penicillin, 100 μg ml^−1 streptomycin, and 2 mg ml^−1 of 6-Aminocaproic acid (ACA). […] This medium was used and changed every day for the following 6 days.
Field potential (FP) measurements (Figure 1B) were performed after 6 or 7 days of culture, when the model expresses a strong spontaneous and synchronous beating. […] An AgCl ground electrode was inserted in one of the 4 cell culture medium reservoirs. Cell culture medium was changed at least 1 h prior to perform the measurements. To execute the tests, uHeart was maintained in the incubator at 37°C with 5% CO2 and the electrodes were connected to an extracellular amplifier (Ext-02b, Npi Electronic GmbH, Germany) with a 1 × 10^4 gain and a bandpass filter between 0.3 Hz and 10 kHz. FPs were acquired with an electronic board (Analog Discovery 2, Digilent, Washington) at a rate of 2000 samples s^−1.
The cell culture medium was exchanged with fresh serum-free RPMI medium and after 1 h the baseline FP signal was recorded for at least 3 min. Subsequently, the lowest drug dose was administered to the microtissues and incubated at 37°C for 10–20 min before recording the corresponding FP for at least 3 min. Between each incremental dose, a 5-min washing was performed with serum-free RPMI medium.
Results of BP, FPD, and AMP assessed by the algorithm were compared against manual measurement. BP and FPD were additionally analyzed by applying an initial bandwidth filter to the signal (3rd order Butterworth filter, 0.67–100 Hz, zero phase), to further verify the quality of the estimates obtained. After the validation, the algorithm was used to analyze the FP signal recorded during the pharmacological campaign. Signals not correctly recognized by the software, as verified by visual inspection on the user interface, were manually analyzed.
For compounds not evoking responses, the maximum tested concentration respect to the fETPC was used.
A quality control was established to select the signals to be considered for the evaluation of electrophysiological parameters changes in response to increasing concentrations of compounds. […] This inclusion criteria ensured that the developed cardiac microtissues spontaneously beat in a consistent way and allowed to normalize the obtained FP signals with correction methods based on the beating frequency.

[2] = cited from earlier work; for fETPC: free effective therapeutic plasma concentration, ref Nguyen et al. (2017), Yamazaki et al. (2018)
[3] = design: method as in Mair et al., 2022; details: long incubation, after 7 days; ref Mair et al., 2022; cited from earlier work
[4] = TdP risk category; ref Blinova et al., 2017; cited from earlier work
[5] = clinical highest blood drug concentration, ref Blinova et al. (2017), Kopljar et al. (2018), Voelker and Hammer (2012)

SMILES	Arrhythmic events, percentage of uHearts affected [1] [%]	Arrhythmic events ([1]; also in words)	Effect on beating period BP (in words) [1]	Effect on FPDcF (in words) [1]	TdP risk category proposed from uHeart score [1]	[%FPDcF] >LOW, drug concentration [1] [µM]	FPDcF alteration, direction, at [%FPDcF]>HIGH [1]	FPDcF alteration, direction, at [%FPDcF] >MID [1]	fETPC [2] [µM]	Cmax [2, 5] [nM]	other results
CN(CCOc1ccc(NS(C)(=O)=O)cc1)CCc1ccc(NS(C)(=O)=O)cc1 [Dofetilide]	66	Arrhythmic events were detected	slightly increased the BP	concentration-dependent prolongation of the FPDcF	high risk						Stop, percentage of uHearts [1]: 33%; uHearts that ceased beating over uHearts tested [1]: 1 over 3; Effect on spike amplitude AMP (in words) [1]: incremental decrease in the AMP; Effect on FPDcF (in words) ([1]; listed as dofetilide): prolonged the FPDcF above the defined thresholds; also recorded: dose-related FPDcF prolongation
Cc1cccc(C)c1OCC(C)N (stereo not shown) [Mexiletine]			did not show a trend in altering neither the FPDcF nor the BP; also recorded: without majorly affecting the FPDcF or the BP		low-risk	50	↔ [drawing 21]	↔ [drawing 20]	2.5		Concentration at which AMP statistically decreased ([1]; already at medium concentration): 10000 nM; Effect on spike amplitude AMP (in words) [1]: statistically decreased in a concentration-dependent way; also recorded: dose-related statistically significant reduction of the FP amplitude
CC(C)(C)c1ccc(C(O)CCCN2CCC(C(O)(c3ccccc3)c3ccccc3)CC2)cc1 (stereo not shown) [Terfenadine]	60	arrhythmic events	without affecting the BP	statistically prolonged the FPDcF at high dosages; also recorded: prolongation of the FPDcF	high risk				0.00029	0.29	Reduction of compound by absorption in PDMS [3]: about 20%; Concentration at which FPDcF was statistically prolonged ([1]; Kruskal-Wallis with Dunn's test): 300 nM; Concentration found effective in uHeart ([1]; as quoted in Discussion): 100000 nM; Arrhythmic events, lowest detected concentration [1]: 0.001 µM; fETPC in the presence of metabolic inhibition ([2]; patients, cytochrome P450 inhibitor, ref Redfern et al., 2003): about 4 nM; Cmax ([2]; read-out: Cmax or fETPC, clinical value of patients, ref Ando et al., 2017): 0.29 nM
COc1ccccc1OCC(O)CN1CCN(CC(=O)Nc2c(C)cccc2C)CC1 (stereo not shown) [Ranolazine]	20	generated arrhythmia; also recorded: caused arrhythmic beating	increase the BP	statistically enhanced the repolarization time; also recorded: prolonged the FPDcF; also recorded: dose-related FPDcF prolongation	high-risk						Effect on beating period BP (in words) ([1]; listed as ranolazine): rose the BP
COc1cc2nc(N(C)CCCNC(=O)C3CCCO3)nc(N)c2cc1OC (stereo not shown) [Alfuzosin]		caused arrhythmic beating		did not showed a peculiar trend	low-risk	0.3	↔ [drawing 30]	↔ [drawing 29]	0.01	15	Concentration at which the described FPDcF change was seen [1]: 300 nM; FPDcF prolongation ([1]; at high concentration (ie,100 µM)): ~10%; Effect on FPDcF (in words) ([1]; listed as alfuzosin): shortening
CC(C)NCC(O)c1ccc(NS(C)(=O)=O)cc1 (stereo not shown) [Sotalol]		did not elicit any arrhythmia; also recorded: not found to provoke arrhythmic events	slightly increased the BP; also recorded: drug dose dependent increase of the BP	prolonged the FPDcF above the defined thresholds; also recorded: dose-related FPDcF prolongation	high risk						
CC(=O)Oc1ccccc1C(=O)O [Aspirin]				did not change the FPDcF	low-risk		↔ [drawing 33]	↔ [drawing 32]	7.1	24400	Concentration at which the described FPDcF change was seen [1]: 300000 nM; Effect on FPDcF (in words) ([1]; listed as aspirine): increment of the FPDcF just above the LOW threshold only at the highest concentration tested; FPDcF alteration, direction, at [%FPDcF] >LOW ([1]; threshold LOW = 10% change vs baseline): ↔ [drawing 31]
C=C[C@H]1C[N@@]2CC[C@H]1C[C@@H]2[C@@H](O)c1ccnc2ccc(OC)cc12 [Quinidine]	50	Arrhythmic events were detected	slightly increased the BP	prolonged the FPDcF above the defined thresholds; also recorded: dose-related FPDcF prolongation	high risk	0.06			3	3000	[%FPDcF] >MID, drug concentration ([1]; concentration causing FPDcF change by 15% vs baseline): 1 µM; [%FPDcF]>HIGH, drug concentration ([1]; concentration causing FPDcF change by 20% vs baseline): 10 µM; Arrhythmic events, lowest detected concentration [1]: 0.1 µM
COc1cc(N)c(Cl)cc1C(=O)NC1CCN(CCCOc2ccc(F)cc2)CC1OC (stereo not shown) [Cisapride]	50	caused arrhythmic beats		slightly decrease in the FPDcF; also recorded: shortened the repolarization time at all considered thresholds; also recorded: did not revealed a FPDcF prolongation	high risk						Risk CiPa [4]: I; Stop, percentage of uHearts [1]: 25%; uHearts that ceased beating over uHearts tested [1]: 2 over 4; Stop (spontaneous beating cessation) ([1]; Y or N, also in words): interrupted the spontaneous beating of microtissues
